Measurements as given in US12268683B2, “Compounds and methods for synergistic activation of M channels” (THE REGENTS OF THE UNIVERSITY OF CALIFORNIA, priority 2018, dated 2025).
Entries after “also recorded” stand apart in the source; their conditions may differ.

Assays:
KCNQ2/3 [1] = biological target: T1, KCNQ2/3 (Homo sapiens, UniProt O43525+O43526); experiment: TEVC of heteromeric KCNQ2/3 channels expressed in Xenopus laevis oocytes; format: cell-based; settings: for effect on voltage dependence of KCNQ2/3 activation, screen of M. oppositifolius leaf compounds: 100 μM, MTX and palmitic acid 30 μM
Text: (§1) cRNA transcripts encoding human KCNA1, KCNQ1, KCNQ2, KCNQ3, KCNQ4, or KCNQ5 were generated by in vitro transcription using the T7 polymerase message machine kit (Thermo Fisher Scientific), after vector linearization, from cDNA sub-cloned into plasmids incorporating X. laevis β-globin 5′ and 3′ UTRs flanking the coding region to enhance translation and cRNA stability. cRNA was quantified by spectrophotometry. Mutant cDNAs were generated by site-directed mutagenesis using a QuikChange kit according to manufacturer's protocol (Stratagene, San Diego, Calif.) and corresponding cRNAs prepared as above. Defolliculated stage V and VI X. laevis oocytes (Ecocyte Bioscience, Austin, Tex.) were injected with Kv channel a subunit cRNAs (10 ng total per oocyte). Oocytes were incubated at 16° C. in Barth's saline solution (Ecocyte) containing penicillin and streptomycin, with daily washing, for 3-5 days prior to two-electrode voltage-clamp (TEVC) recording.
TEVC recording was performed at room temperature with an OC-725C amplifier (Warner Instruments, Hamden, Conn.) and pClamp10.2 software (Molecular Devices, Sunnyvale, Calif.) 3-5 days after cRNA injection as described in the section above. Oocytes were placed in a small-volume oocyte bath (Warner) and viewed with a dissection microscope. Chemicals were sourced from Sigma. Bath solution was (in mM): 96 NaCl, 4 KCl, 1 MgCl2, 1 CaCl2. 10 HEPES (pH 7.6). […] MTX (DMSO), sorbic acid (ethanol), and glutaconic acid (molecular grade H2O) were stored at −20° C. as 1 M stocks. Oleamide was stored as a 1 mM stock in ethanol at 4° C. Palmitic acid was conjugated with bovine serum albumin as a 1 mM stock and stored at −20° C. All compounds were diluted to working concentrations each experimental day. All compounds were introduced to the recording bath via gravity perfusion at a constant flow of 1 ml/min for 3 min prior to recording. Pipettes were of 1-2 MΩ resistance when filled with 3 M KCl. Currents were recorded in response to pulses between −80 and +40 mV at 20 mV intervals, or a single pulse to +40 mV, from a holding potential of −80 mV, to yield current-voltage relationships, current magnitude, and for quantifying activation rate. TEVC data analysis was performed with Clampfit10.2 (Molecular Devices) and Graphpad Prism software (GraphPad, San Diego, Calif., USA); values are stated as mean±SEM. Normalized tail currents were plotted versus prepulse voltage and fitted with a single Boltzmann function: […]
(§2) cRNA transcripts encoding human KCNQ2, KCNQ3, KCNQ4, KCNQ5 (Kv7.2-Kv7.5) were generated by in vitro transcription using the T7 polymerase mMessage mMachine kit (Thermo Fisher Scientific), after vector linearization, from cDNA sub-cloned into plasmids incorporating Xenopus laevis β-globin 5′ and 3′ UTRs flanking the coding region to enhance translation and cRNA stability. cRNA was quantified by spectrophotometry. Mutant KCNQ2 and KCNQ3 cDNAs were generated with site-directed mutagenesis using a QuikChange kit according to the manufacturer's protocol (Stratagene, San Diego, Calif.) and corresponding cRNAs prepared as above.

KCNQ2-W236L/KCNQ3-W265L = KCNQ2-W236L/KCNQ3-W265L (Homo sapiens, UniProt O43525+O43526, W236L/W265L); experiment: TEVC of double-mutant WL/WL KCNQ2/3 channels; format: cell-based
Text: as §1
TEVC recording was performed at room temperature with an OC-725C amplifier (Warner Instruments, Hamden, Conn.) and pClamp10.2 software (Molecular Devices, Sunnyvale, Calif.) 3-5 days after cRNA injection as described in the section above. Oocytes were placed in a small-volume oocyte bath (Warner) and viewed with a dissection microscope. Chemicals were sourced from Sigma. Bath solution was (in mM): 96 NaCl, 4 KCl, 1 MgCl2, 1 CaCl2. 10 HEPES (pH 7.6). […] Currents were recorded in response to pulses between −80 and +40 mV at 20 mV intervals, or a single pulse to +40 mV, from a holding potential of −80 mV, to yield current-voltage relationships, current magnitude, and for quantifying activation rate. […]
as §2, with “Mutant KCNQ2 and KCNQ3 cDNAs were generated with site-directed mutagenesis using a QuikChange kit according to the manufacturer's protocol (Stratagene, San Diego, Calif.) and corresponding cRNAs prepared as above.” left out

KCNQ2/3 [2] = biological target: T1, KCNQ2/3; settings: cited from earlier work
[3] = tested on: pentylene tetrazole-induced seizures; experiment: PTZ chemoconvulsant assay; format: in vivo, mouse
Text: We compared anticonvulsant activities of test compounds in male C57BL/6 mice (Charles River) aged 2-3 months. Mice were housed and used according to the recommendations in the Guide for the Care and Use of Laboratory Animals of the National Institutes of Health (NIH Publication, 8th edition, 2011). The study protocol was approved by the Institutional Animal Care and Use Committee of University of California, Irvine, which confirmed that all relevant ethical regulations were adhered to. Chemicals were sourced from Sigma (St. Louis, Mo., USA). A pentylene tetrazole (PTZ) chemoconvulsant assay was used-. […] Following the PTZ injection, mice were caged individually and an observer (GWA) blinded to the drug used recorded, over 20 min, clonic and tonic seizure incidence, and seizure-related mortality.
We quantified the anticonvulsant activities of (E)-2-dodecenal and tridecanal in male C57BL/6 mice (Charles River, Wilmington, Mass.) aged 2-3 months. The mice were housed and used according to the recommendations in the Guide for the Care and Use of Laboratory Animals of the National Institutes of Health (NIH Publication, 8th edition, 2011). The study protocol was approved by the Institutional Animal Care and Use Committee of University of California, Irvine. The chemicals were sourced from Sigma (St. Louis, Mo., USA). We used a pentylene tetrazole (PTZ) chemoconvulsant assay as we previously described (30). We injected the mice intraperitoneally with (E)-2-dodecenal (2 or 20 mgkg^−1) (with or without 2.5 mgkg^−1 XE991) or tridecanal (20 mgkg^−1) solubilized in PBS, or vehicle control (PBS), and then 30 minutes later we injected mice intraperitoneally with 80 mgkg-PTZ. Following the PTZ injection, the mice were caged individually and an observer (GWA) blinded to the experimental condition timed the latency to first seizure.
We compared anticonvulsant activities of 3FMSG in male C57BL/6 mice (Charles River) aged 2-3 months. Mice were housed and used according to the recommendations in the Guide for the Care and Use of Laboratory Animals of the National Institutes of Health (NIH Publication, 8th edition, 2011). The study protocol was approved by the Institutional Animal Care and Use Committee of University of California, Irvine, which confirmed that all relevant ethical regulations were adhered to. Chemicals were sourced from Sigma (St. Louis, Mo., USA). We used a pentylene tetrazole (PTZ) chemoconvulsant assay as we previously described^27. Mice were injected intraperitoneally with 3FMSG (5 mg kg^−1) or vehicle control (PBS) and then 30 minutes later injected intraperitoneally with 80 mg kg^−1 PTZ. Following the PTZ injection, mice were caged individually and an observer (GWA) blinded to the drug used recorded seizure activity over 20 minutes.

KCNQ1 = KCNQ1 (Homo sapiens, UniProt P51787); experiment: TEVC of homomeric KCNQ1 expressed in Xenopus oocytes; format: cell-based; settings: Example 4; read-out: EC50, ΔV0.5act of KCNQ1
KCNQ3* (KCNQ3-A315T) = KCNQ3* (KCNQ3-A315T) (Homo sapiens, UniProt O43525, A315T); experiment: TEVC of homomeric KCNQ3* expressed in Xenopus oocytes; format: cell-based
Text: as §1
(§3) TEVC recording was performed at room temperature with an OC-725C amplifier (Warner Instruments, Hamden, Conn.) and pClamp10.2 software (Molecular Devices, Sunnyvale, Calif.) 3-5 days after cRNA injection as described in the section above. Oocytes were placed in a small-volume oocyte bath (Warner) and viewed with a dissection microscope. Chemicals were sourced from Sigma. Bath solution was (in mM): 96 NaCl, 4 KCl, 1 MgCl2, 1 CaCl2. 10 HEPES (pH 7.6). […] MTX (DMSO), sorbic acid (ethanol), and glutaconic acid (molecular grade H2O) were stored at −20° C. as 1 M stocks. Oleamide was stored as a 1 mM stock in ethanol at 4° C. Palmitic acid was conjugated with bovine serum albumin as a 1 mM stock and stored at −20° C. All compounds were diluted to working concentrations each experimental day. All compounds were introduced to the recording bath via gravity perfusion at a constant flow of 1 ml/min for 3 min prior to recording. Pipettes were of 1-2 MΩ resistance when filled with 3 M KCl. Currents were recorded in response to pulses between −80 and +40 mV at 20 mV intervals, or a single pulse to +40 mV, from a holding potential of −80 mV, to yield current-voltage relationships, current magnitude, and for quantifying activation rate. TEVC data analysis was performed with Clampfit10.2 (Molecular Devices) and Graphpad Prism software (GraphPad, San Diego, Calif., USA); values are stated as mean±SEM. Normalized tail currents were plotted versus prepulse voltage and fitted with a single Boltzmann function:
(§4) cRNA transcripts encoding human KCNQ2, KCNQ3, KCNQ4, KCNQ5 (Kv7.2-Kv7.5) were generated by in vitro transcription using the T7 polymerase mMessage mMachine kit (Thermo Fisher Scientific), after vector linearization, from cDNA sub-cloned into plasmids incorporating Xenopus laevis β-globin 5′ and 3′ UTRs flanking the coding region to enhance translation and cRNA stability. cRNA was quantified by spectrophotometry. Mutant KCNQ2 and KCNQ3 cDNAs were generated with site-directed mutagenesis using a QuikChange kit according to the manufacturer's protocol (Stratagene, San Diego, Calif.) and corresponding cRNAs prepared as above. Defolliculated stage V and VI Xenopus laevis oocytes (Ecocyte Bioscience, Austin, Tex.) were injected with KCNQ channel α subunit cRNAs (5-10 ng). The oocytes were incubated at 16° C. in Barth's saline solution (Ecocyte) containing penicillin and streptomycin, with daily washing, for 2-5 days prior to two-electrode voltage-clamp (TEVC) recording.
(§5) TEVC recording was performed at room temperature using a OC-725C amplifier (Warner Instruments, Hamden, Conn.) and pClamp8 software (Molecular Devices, Sunnyvale, Calif.) 2-5 days after cRNA injection as described in the section above. The oocytes were placed in a small-volume oocyte bath (Warner) and viewed with a dissection microscope. Unless otherwise stated, chemicals were sourced from Sigma. Bath solution was (in mM): 96 NaCl, 4 KCl, 1 MgCl2, 1 CaCl2, 10 HEPES (pH 7.6).

KCNQ4 = KCNQ4 (Homo sapiens, UniProt P56696); experiment: TEVC of homomeric KCNQ4 expressed in Xenopus oocytes; format: cell-based
Text: as §1, §3, §4, §5

KCNQ5 = KCNQ5 (Homo sapiens, UniProt Q9NR82); experiment: TEVC of homomeric KCNQ5 expressed in Xenopus oocytes; format: cell-based
Text: as §1, §3, §4, §5

KCNQ2 = KCNQ2 (Homo sapiens, UniProt O43526); experiment: TEVC of homomeric KCNQ2 expressed in Xenopus oocytes; format: cell-based; settings: Example 4; read-out: EC50, ΔV0.5act of KCNQ2
Text: as §1, §3, §4, §5

Oc1ccccc1S [2-mercaptophenol]
concentration from which KCNQ2/3 is inhibited (KCNQ2/3 [1]): ~100 µM | effect of co-applied compound (100 μM) on KCNQ2/3 activation by MTX (30 μM) or IVA (500 μM) (KCNQ2/3 [1]): did not alter | effect on KCNQ2/3 activity (in words) (KCNQ2/3 [1]): inhibits; also recorded: inhibitory at higher doses | effect on voltage dependence of KCNQ2/3 activation, screen of M. oppositifolius leaf compounds (KCNQ2/3 [1]): positive-shifted | effect on WL/WL KCNQ2/3 (in words) (KCNQ2-W236L/KCNQ3-W265L): insensitive

CCCCCCCC/C=C\CCCCCCCC(N)=O [oleamide]
effect on KCNQ2/3 activity (in words) (KCNQ2/3 [1]): slightly increased KCNQ2/3 currents at higher voltages

O=C(Nc1cnc(Cl)nc1)c1ccc(F)c(F)c1 [ICA-069673]
selectivity KCNQ2/3 versus KCNQ3/5 activation (KCNQ2/3 [2]): 20 fold

O=C1c2ccccc2C(Cc2ccncc2)(Cc2ccncc2)c2ccccc21 [XE991]
inhibition of activator-augmented KCNQ2/3 current (KCNQ2/3 [1]; after wash-in of MTX or gabapentin): rapidly inhibited; also recorded: completely inhibited | latency to first PTZ-induced seizure ([3]; XE991 2.5 mgkg−1 with (E)-2-dodecenal 20 mgkg−1): eliminated the protective effect

NC(C(=O)O)c1ccc(F)cc1 (stereo not drawn) [4FPG, 4-(fluorophenyl)glycine]
EC50 (KCNQ1): 90 ± 20 nM | effect on KCNQ3* (in words) (KCNQ3* (KCNQ3-A315T)): no effects | EC50 (KCNQ2/3 [1]; Example 4, read-out: EC50, shift in voltage dependence of KCNQ2/3 activation (ΔV0.5act)): 61 ± 42 nM | EC50 (KCNQ4; Example 4, read-out: EC50, ΔV0.5act of KCNQ4): 49 ± 12 nM | effect on KCNQ5 (in words) (KCNQ5): no effects | EC50 (KCNQ2): 69 ± 31 nM

CCCCCCCCCCCCC=O [tridecanal, reference compound]
effect on KCNQ2/3 activity (in words) (KCNQ2/3 [1]): KCNQ2/3-inactive | latency to first PTZ-induced seizure ([3]; 20 mgkg−1 i.p.): no effect

NCCCC(=O)O [GABA, γ-aminobutyric acid, reference compound]
effect on KCNQ4 (in words) (KCNQ4): unable to open

O=C(O)C=CCC(=O)O [glutaconic acid]
effect on voltage dependence of KCNQ2/3 activation, screen of M. oppositifolius leaf compounds (KCNQ2/3 [1]): negative-shifted

CCCCC(=O)O [valeric acid]
KCNQ2/3 activation (previously found) (KCNQ2/3 [2]): inactive

CC(C)C[C@H](CN)CC(=O)O [pregabalin]
concentration from which KCNQ2/3 is inhibited (KCNQ2/3 [1]): ≥ 10 µM | effect on KCNQ2/3 activity (in words) (KCNQ2/3 [1]): does not activate; also recorded: no augmenting effect | effect on KCNQ2/3 gating kinetics (KCNQ2/3 [1]): no effects | shift of membrane potential (EM) of KCNQ2/3-expressing oocytes (KCNQ2/3 [1]; unclamped oocytes): failed to shift

NCC(O)CC(=O)O (stereo not drawn) [GABOB, γ-Amino-β-hydroxybutyric acid]
effect of co-applied compound (100 μM) on KCNQ2/3 activation by MTX (30 μM) or IVA (500 μM) (KCNQ2/3 [1]): only partially diminishes; also recorded: highly effective at competing out

O=C(Nc1ccc(Cl)nc1)c1ccc(F)c(F)c1 [ICA-27243]
potency at opening KCNQ2/3 versus KCNQ4 (KCNQ2/3 [2]): > 20 fold

CCCCCCCCCCCCCCCC(=O)O [palmitic acid]
effect on voltage dependence of KCNQ2/3 activation, screen of M. oppositifolius leaf compounds (KCNQ2/3 [1]): negative-shifted
